Key:
[1] = biological target: T1, glucose-6-phosphate dehydrogenase (G6PDH) (Rattus norvegicus, UniProt P05370); experiment: G6PDH activity after pretreatment of intact airway smooth muscle monolayers; assay type: cell-based; details: for G6PDH activity of subsequent cell lysates: monolayers pretreated with concentrations that inhibited cell proliferation, result in words
T1 construct: endogenous in cells; host or cells: primary rat tracheal (airway) smooth muscle cells
Method: (§1) After 1 hour cells were lysed and G6PDH activity was assayed as described below. In other experiments, G6PDH activity was measured in cell lysates prepared from untreated confluent cultures and treated in vitro with DHEA or 16α-BrEA added to the reaction mixture in 5 µl DMSO. […] Ribonucleosides or deoxyribonucleosides were dissolved in 0.5 ml of 1 N HCl and added to DMEM. The pH of the medium was adjusted to 7.1 by titration with 1 N NaOH, and medium was then sterilized by passage through a […] filter. Growth was measured by MTT reduction after 24, 48 and 96 hours.
(§2) To determine if DHEA or its analogs induced programmed cell death, confluent cultures in 6 well plastic plates were treated with 50 or 250 µM DHEA, 10 or 50 µM 16α-BrEA, or vehicle (25 µl DMSO). After 2 hours cells were washed twice with DPBS and scraped on ice into 1.5 ml microfuge tubes and centrifuged 250 g for 5 minutes at 4°C. The cell pellet was gently resuspended in 30 µl DPBS and lysed by addition of 30 µl lysis buffer (80 mM EDTA, 1.6% [wt/vol] sodium lauryl sarcosinate and 5 mg/ml proteinase K in 200 mM Tris-HCl buffer, pH 8.0). Lysate was incubated at 50°C for 1.5 hours. RNAse A (0.2 mg/ml) was added and the lysate was incubated for another 30 minutes at 37°C. DNA bands were separated along with a DNA ladder standard on a 1% agarose gel at 60 V for 1 hour, intercalated with ethidium bromide, and visualized and photographed under ultraviolet light. Measurement of Glucose-6-Phosphate Dehydrogenase Activity. Cultures were washed three times with cold DPBS on ice, scraped into ice cold buffer (10 mM MgCl2 in 50 mM Tris, pH 8.0) and sonicated on ice. G6PDH activity was then assayed by the method of Jones and Andrews (Jones, J.T., and Andrews, S.G., "Glucose-6-phosphate dehydrogenase activity in somatic and germinal cells of the mouse testis," J. Reproduc. Fertility, 54, 357-362 (1978)) in a reaction mixture containing 50-200 µl cell lysate, 20 µl of 10 mM β-nicotinamide adenine dinucleotide phosphate (NADP) and 20 µl of 10 mM D-glucose-6-phosphate (G6P) in a total volume of 1 ml buffer (10 mM MgCl2 in 50 mM Tris, pH 8.0). The reaction was initiated by addition of G6P. The linear increase in absorbance at 340 nm was monitored at 25°C for 300 seconds. Activity was expressed as units/mg protein, where 1.0 unit will oxidase 1.0 µmole of G6P to 6-phospho-D-gluconate per min in the presence of NADP. Protein was measured using the BCA protein assay (Rockford, IL). Immunoblot Assay for p21^ras and c-fos Proteins. For measurement of p21^ras, cells were washed twice-with cold DPBS and swelled on ice for 15 minutes with 500 µl cold lysis buffer (10 mM HEPES, 1 mM MgCl2, 1 mM EDTA, 1 µM pepstatin, 2 µg/ml aprotinin, and 1 mM phenylmethylsulfonyl fluoride). See Schulz and Nyce (1991), supra. Cells were then scraped into 1.5 ml polypropylene tubes, homogenized and clarified by centrifugation at 3,000 g for 1 minute at 4°C. The postnuclear supernatant was centrifuged 100,000 g for 30 minutes at 4°C. Supernatants were collected and pelleted membranes were resuspended in detergent buffer (1% Triton X-100, 1% sodium deoxycholate, 0.1% SDS, 150 mM NaCl, 1 µM pepstatin, 2 µg/ml aprotinin and 1 mM phenylmethylsulfonyl fluoride in 25 mM Tris, pH 7.4). Aliquots of supernatant and membrane fractions were removed for protein determination using the BCA protein assay. Bromophenol blue and β-mercaptoethanol were added to the remaining sample to a final concentration of 0.002% (wt/vol) and 5% (vol/vol), respectively. Lysates were then boiled for 5 minutes at 100°C and stored at -80°C until immunoblotting was performed.
Activity is expressed as % inhibition of DMSO vehicle-treated controls by 16α-bromoepiandrosterone (BrEA) or dehydroepiandrosterone (DHEA). DMSO alone caused no reduction in G6PDH activity under assay conditions. Each bar represents the mean of at least 3 experiments. Methods are described in the text. […]

Human Erythrocyte G6PDH = biological target: T2, Human Erythrocyte G6PDH (Homo sapiens, UniProt P11413); experiment: Inhibition of purified glucose 6-phosphate dehydrogenase activity; assay type: biochemical; details: 0.01 U/ml Type XXVI G6PDH from human erythrocytes, vs DMSO vehicle-treated controls, read-out: PERCENT INHIBITION OF GLUCOSE 6-PHOSPHATE DEHYDROGENASE ACTIVITY
T2 construct: purified G6PDH from human erythrocytes; purchased Sigma Type XXVI; host or cells: human erythrocytes (natural source)
T2 sequence (P11413 whole entry): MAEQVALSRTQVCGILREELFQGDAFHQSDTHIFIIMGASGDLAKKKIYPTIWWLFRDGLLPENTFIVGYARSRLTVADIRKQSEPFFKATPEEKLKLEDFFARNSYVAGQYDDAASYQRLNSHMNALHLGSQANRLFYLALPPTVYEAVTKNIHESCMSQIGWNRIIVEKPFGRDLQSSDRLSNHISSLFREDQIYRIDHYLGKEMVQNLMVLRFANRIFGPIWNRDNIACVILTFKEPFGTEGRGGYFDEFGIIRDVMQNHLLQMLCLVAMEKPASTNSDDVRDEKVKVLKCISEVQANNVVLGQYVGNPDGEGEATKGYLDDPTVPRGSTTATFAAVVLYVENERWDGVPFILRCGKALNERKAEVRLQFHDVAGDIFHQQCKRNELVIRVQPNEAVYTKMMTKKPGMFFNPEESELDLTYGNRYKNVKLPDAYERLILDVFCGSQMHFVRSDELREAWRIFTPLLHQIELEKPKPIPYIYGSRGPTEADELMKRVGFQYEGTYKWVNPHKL

[2] = biological target: T1, glucose-6-phosphate dehydrogenase (G6PDH); experiment: G6PDH activity in airway smooth muscle cell lysates, inhibitors added to the lysate; assay type: biochemical; details: 100 µl, read-out: PERCENT INHIBITION OF GLUCOSE 6-PHOSPHATE DEHYDROGENASE ACTIVITY
Method: as §1
as §2, with “Bromophenol blue and β-mercaptoethanol were added to the remaining sample to a final concentration of 0.002% (wt/vol) and 5% (vol/vol), respectively. Lysates were then boiled for 5 minutes at 100°C and stored at -80°C until immunoblotting was performed.” left out
Activity is expressed as % inhibition of DMSO vehicle-treated controls by 16α-bromoepiandrosterone (BrEA) or dehydroepiandrosterone (DHEA). […]

T1 sequence (P05370 whole entry): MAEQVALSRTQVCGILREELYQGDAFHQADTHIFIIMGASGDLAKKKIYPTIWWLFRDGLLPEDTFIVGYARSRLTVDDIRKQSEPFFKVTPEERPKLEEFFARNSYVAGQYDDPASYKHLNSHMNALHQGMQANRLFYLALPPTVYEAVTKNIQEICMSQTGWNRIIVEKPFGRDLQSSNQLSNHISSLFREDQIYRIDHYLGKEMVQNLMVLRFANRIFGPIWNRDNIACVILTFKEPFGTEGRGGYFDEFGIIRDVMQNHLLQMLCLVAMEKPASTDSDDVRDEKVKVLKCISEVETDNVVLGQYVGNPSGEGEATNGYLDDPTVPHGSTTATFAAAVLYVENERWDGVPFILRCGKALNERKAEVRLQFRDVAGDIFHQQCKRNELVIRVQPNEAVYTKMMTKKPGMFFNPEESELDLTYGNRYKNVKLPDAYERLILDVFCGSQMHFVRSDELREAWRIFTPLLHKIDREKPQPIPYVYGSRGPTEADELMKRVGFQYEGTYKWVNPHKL

| SMILES | G6PDH activity of subsequent cell lysates [1] | inhibition at 25 µM (Human Erythrocyte G6PDH; 25 µM) [%] | inhibition at 50 µM (Human Erythrocyte G6PDH; 50 µM) [%] | inhibition at 25 µM [2] [%] | inhibition at 50 µM [2] [%] | inhibition at 25 µM ([1]; 25 µM, Intact Airway Smooth Muscle monolayers pretreated 1 hour before harvest, read-out: PERCENT INHIBITION OF GLUCOSE 6-PHOSPHATE DEHYDROGENASE ACTIVITY) [%] | inhibition at 50 µM ([1]; 50 µM, Intact Airway Smooth Muscle monolayers pretreated 1 hour before harvest, read-out: PERCENT INHIBITION OF GLUCOSE 6-PHOSPHATE DEHYDROGENASE ACTIVITY) [%] | inhibition at 100 µM ([1]; 100 µM, Intact Airway Smooth Muscle monolayers pretreated 1 hour before harvest, read-out: PERCENT INHIBITION OF GLUCOSE 6-PHOSPHATE DEHYDROGENASE ACTIVITY) [%] | inhibition at 250 µM ([1]; 250 µM, Intact Airway Smooth Muscle monolayers pretreated 1 hour before harvest, read-out: PERCENT INHIBITION OF GLUCOSE 6-PHOSPHATE DEHYDROGENASE ACTIVITY) [%] | inhibition at 100 µM ([2]; 100 µM) [%] |
| --- | --- | --- | --- | --- | --- | --- | --- | --- | --- | --- |
| C[C@]12CC[C@H](O)C[C@@H]1CC[C@@H]1[C@@H]2CC[C@]2(C)C(=O)[C@H](Br)C[C@@H]12 [16α-BrEA, 16α-bromoepiandrosterone] | not significantly reduced | 47 ± 6 | 57 ± 9 | 49 | 71 ± 8 | – | – | – | – | – |
| C[C@]12CC[C@H](O)CC1=CC[C@@H]1[C@@H]2CC[C@]2(C)C(=O)CC[C@@H]12 [DHEA, dehydroepiandrosterone] | not significantly reduced | – | – | 77 ± 3 | 82 ± 3 | 0 | 0 | 6 ± 7 | 24 ± 9 | 93 ± 3 |

Reference: patent EP0934745B1, “Use of androsterone derivatives for inhibiting DNA binding of ap-1 and airway smooth muscle proliferation” (CHARLOTTE-MECKLENBURG HOSPITAL doing business as Carolinas …, priority 1998, dated 1999)
